Data reported in US20230026856A1, “HETEROCYCLIC COMPOUNDS AND METHODS OF USE THEREOF” (SPARCBIO LLC, priority 2020, published 2023).

These compounds were tested against KRAS G12C protein (Homo sapiens, UniProt P01116, G12C) (assay: Nucleotide exchange assay, Method III (TR-FRET, association of KRAS G12C with Raf-RBD, SOS1-mediated exchange)). Settings: overnight (18 hr) incubation with GDP-bound KRAS G12C.
Format: biochemical
Method: Method III. Inhibition of SOS1-mediated exchange of GDP for GTP on the KRAS G12C protein was measured in a biochemical assay that monitors association of KRAS G12C protein with the Ras-binding domain of Raf (Raf-RBD), where the association is coupled to exchange of GDP to GTP on the KRAS G12C protein. The assay was performed at WuXi AppTec (Shanghai, China). Compounds were serially diluted in 3-fold dilutions to 11 concentrations and spotted into the wells of an assay plate in a total volume of 150 nL DMSO per well. A 2× enzyme mix was prepared by diluting GDP-bound, His-tagged KRAS G12C to 25 nM in assay buffer. 10 μL/well of 2× enzyme mix was added to all wells, and the plate was sealed and incubated overnight (18 hr) at 23° C. 4×SOS1/GDP and 4×SOS1/GTP were prepared in assay buffer. 5 μL/well of 4×SOS1/GDP mix was added to negative control wells, 5 μL/well of 4×SOS1/GTP mix was added to the remaining wells, and the plate was further incubated at 23° C. for 1 hr. Finally, FLAG-tagged Raf-RBD is added to the reaction mixture along with a pair of FRET donor- and acceptor-conjugated antibodies specific for the FLAG-tagged Raf-RBD and His-tagged KRAS G12C proteins. A 4× Raf-RBD/Tb-anti-FLAG/D2-anti-His mix was prepared in assay buffer, and 5 μL/well of the mix was added to all wells, followed by incubation at room temperature for 2 hr. The TR-FRET signals, which increase with association of KRAS G12C and Raf-RBD, were measured on a Perkin Elmer Envision 2104 plate reader, and data were analyzed by non-linear regression to obtain IC50 values for inhibition by compounds. Table 2 includes results of the assay of Method III. ‘+++’ indicates IC50 values ≤300 nM, ‘++’ indicates IC50 values between 300 nM-3 μM, and ‘+’ indicates IC50 values ≥3 μM.

Sequence of KRAS G12C protein (P01116 1-188 isoform P01116-2 G12C): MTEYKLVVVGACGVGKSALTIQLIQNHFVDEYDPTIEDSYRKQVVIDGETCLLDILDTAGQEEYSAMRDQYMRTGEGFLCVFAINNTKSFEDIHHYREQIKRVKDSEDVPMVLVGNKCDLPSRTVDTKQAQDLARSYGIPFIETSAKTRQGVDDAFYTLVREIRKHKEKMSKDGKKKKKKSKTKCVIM

Row | Structure (SMILES) | IC50
1 | C=CC(=O)N1CCN(c2c(S(C)(=O)=O)c(=O)n(-c3c(C)ccnc3C(C)C)c3c(F)c(-c4c(C)ccc5[nH]ncc45)c(Cl)cc23)CC1 (single isomer, unassigned) [187 (Isomer B), 4-(4-acryloylpiperazin-1-yl)-6-chloro-8-fluoro-1-(2-isopropyl-4-methylpyridin-3-yl)-7-(5-methyl-1H-indazol-4-yl)-3-(methylsulfonyl)quinolin-2(1H)-one] | ≤ 0.3 µM
2 | C=CC(=O)N1CCC(n2c(=O)c(=O)n(-c3c(C)ccnc3C(C)C)c3nc(-c4c(O)cccc4F)c(F)cc32)C[C@H]1C (single isomer, unassigned) [2 (Isomer A)] | ≥ 3 µM
3 | C=CC(=O)N1CCN(c2c(S(C)(=O)=O)c(=O)n(-c3c(C)ccnc3C(C)C)c3nc(-c4c(O)cccc4F)c(F)cc23)[C@@H](C)C1 (single isomer, unassigned) [131 (Isomer B)] | ≥ 3 µM
4 | C=CC(=O)N1CCN(c2c(S(C)(=O)=O)c(=O)n(-c3c(C)ccnc3C(C)C)c3nc(-c4cccc5sc(N)nc45)c(F)cc23)CC1 (single isomer, unassigned) [250 (Isomer B), 4-(4-acryloylpiperazin-1-yl)-7-(2-aminobenzo[d]thiazol-4-yl)-6-fluoro-1-(2-isopropyl-4-methylpyridin-3-yl)-3-(methylsulfonyl)-1,8-naphthyridin-2(1H)-one] | 0.3 to 3 µM
5 | C=CC(=O)N1CCN(c2c(S(C)(=O)=O)c(=O)n(-c3c(C)ccnc3C(C)C)c3c(F)c(-c4c(O)cccc4F)c(Cl)cc23)CC1 (single isomer, unassigned) [176 (Isomer C), 4-(4-acryloylpiperazin-1-yl)-6-chloro-8-fluoro-7-(2-fluoro-6-hydroxyphenyl)-1-(2-isopropyl-4-methylpyridin-3-yl)-3-(methylsulfonyl)quinolin-2(1H)-one] | 0.3 to 3 µM
6 | C=CC(=O)N1CCN(c2c(S(C)(=O)=O)c(=O)n(-c3c(C)ccnc3C(C)C)c3c(F)c(-c4c(C)ccc5[nH]ncc45)c(Cl)cc23)CC1 (single isomer, unassigned) [187 (Isomer A), 4-(4-acryloylpiperazin-1-yl)-6-chloro-8-fluoro-1-(2-isopropyl-4-methylpyridin-3-yl)-7-(5-methyl-1H-indazol-4-yl)-3-(methylsulfonyl)quinolin-2(1H)-one] | 0.3 to 3 µM
7 | C=CC(=O)N1CCC(n2c(=O)c(=O)n(-c3c(C)ccnc3C(C)C)c3nc(-c4c(O)cccc4F)c(F)cc32)C(C)C1 (single isomer, unassigned) [294 (Isomer A), 1-(1-acryloyl-3-methylpiperidin-4-yl)-7-fluoro-6-(2-fluoro-6-hydroxyphenyl)-4-(2-isopropyl-4-methylpyridin-3-yl)-1,4-dihydropyrido[2,3-b]pyrazine-2,3-dione] | ≥ 3 µM
8 | C=CC(=O)N1CCN(c2c(S(C)(=O)=O)c(=O)n(-c3c(C)ccnc3C(C)C)c3nc(-c4cccc5sc(N)nc45)c(F)cc23)C[C@H]1C (single isomer, unassigned) [249 (Isomer B)] | 0.3 to 3 µM
9 | C=CC(=O)N1CCN(c2c(S(C)(=O)=O)c(=O)n(-c3c(C)ccnc3C(C)C)c3nc(-c4c(O)cccc4F)c(F)cc23)C[C@H]1C (single isomer, unassigned) [143 (Isomer B)] | ≤ 0.3 µM
10 | C=CC(=O)N1CCN(c2c(C(=O)NC)c(=O)n(-c3c(C)ccnc3C(C)C)c3nc(-c4c(C)ccc5[nH]ncc45)c(F)cc23)CC1 (single isomer, unassigned) [116 (Isomer B), 4-(4-acryloylpiperazin-1-yl)-6-fluoro-1-(2-isopropyl-4-methylpyridin-3-yl)-N-methyl-7-(5-methyl-1H-indazol-4-yl)-2-oxo-1,2-dihydro-1,8-naphthyridine-3-carboxamide] | 0.3 to 3 µM
11 | C=CC(=O)N1CCN(c2c(C(=O)NC)c(=O)n(-c3c(C)ccnc3C(C)C)c3nc(-c4c(C)ccc5[nH]ncc45)c(F)cc23)C[C@H]1C (single isomer, unassigned) [114 (Isomer B)] | ≤ 0.3 µM
12 | C=CC(=O)N1CCN(c2c(C(=O)NC)c(=O)n(-c3c(C)ccnc3C(C)C)c3nc(-c4c(O)cccc4F)c(F)cc23)[C@@H](C)C1 (single isomer, unassigned) [76 (Isomer B)] | ≥ 3 µM
13 | C=CC(=O)N1CCN(c2c(C(=O)NC)c(=O)n(-c3c(C)ccnc3C(C)C)c3nc(-c4c(O)cccc4F)c(F)cc23)C[C@@H]1CC#N (single isomer, unassigned) [80 (Isomer B)] | 0.3 to 3 µM
14 | C=CC(=O)N1CCN(c2c(S(C)(=O)=O)c(=O)n(-c3c(C)ccnc3C(C)C)c3c(F)c(-c4cccc5sc(N)nc45)c(Cl)cc23)CC1 (single isomer, unassigned) [252 (Isomer C), 4-(4-acryloylpiperazin-1-yl)-7-(2-aminobenzo[d]thiazol-4-yl)-6-chloro-8-fluoro-1-(2-isopropyl-4-methylpyridin-3-yl)-3-(methylsulfonyl)quinolin-2(1H)-one] | 0.3 to 3 µM
15 | C=CC(=O)N1CCC(n2c(=O)c(=O)n(-c3c(C)ccnc3C(C)C)c3nc(-c4c(O)cccc4F)c(F)cc32)C[C@@H]1C (single isomer, unassigned) [4 (Isomer B)] | ≥ 3 µM
16 | C=CC(=O)N1CCN(c2c(S(C)(=O)=O)c(=O)n(-c3c(C)ccnc3C(C)C)c3nc(-c4c(O)cccc4F)c(F)cc23)CC1 (single isomer, unassigned) [123 (Isomer B), 4-(4-acryloylpiperazin-1-yl)-6-fluoro-7-(2-fluoro-6-hydroxyphenyl)-1-(2-isopropyl-4-methylpyridin-3-yl)-3-(methylsulfonyl)-1,8-naphthyridin-2(1H)-one] | 0.3 to 3 µM
17 | C=CC(=O)N1CCN(c2c(S(C)(=O)=O)c(=O)n(-c3c(C)ccnc3C(C)C)c3nc(-c4c(O)cccc4F)c(F)cc23)C[C@H]1C (single isomer, unassigned) [143 (Isomer A)] | 0.3 to 3 µM
18 | C=CC(=O)N1CCC(c2c(C(=O)NC)c(=O)n(-c3c(C)ccnc3C(C)C)c3nc(-c4c(O)cccc4F)c(F)cc23)CC1 (single isomer, unassigned) [68 (Isomer A), 4-(1-acryloylpiperidin-4-yl)-6-fluoro-7-(2-fluoro-6-hydroxyphenyl)-1-(2-isopropyl-4-methylpyridin-3-yl)-N-methyl-2-oxo-1,2-dihydro-1,8-naphthyridine-3-carboxamide] | 0.3 to 3 µM
19 | C=CC(=O)N1CCN(c2c(C(=O)NC)c(=O)n(-c3c(C)ccnc3C(C)C)c3nc(-c4cccc5sc(N)nc45)c(F)cc23)C[C@H]1C (single isomer, unassigned) [253 (Isomer A)] | ≤ 0.3 µM
20 | C=CC(=O)N1CCC(n2c(=O)c(=O)n(-c3c(C)ccnc3C(C)C)c3nc(-c4c(O)cccc4F)c(F)cc32)C(C)C1 (single isomer, unassigned) [294 (Isomer E), 1-(1-acryloyl-3-methylpiperidin-4-yl)-7-fluoro-6-(2-fluoro-6-hydroxyphenyl)-4-(2-isopropyl-4-methylpyridin-3-yl)-1,4-dihydropyrido[2,3-b]pyrazine-2,3-dione] | ≥ 3 µM
21 | C=CC(=O)N1CCN(c2c(C(=O)NC)c(=O)n(-c3c(C)ccnc3C(C)C)c3nc(-c4cccc5sc(N)nc45)c(F)cc23)CC1 (single isomer, unassigned) [254 (Isomer B), 4-(4-acryloylpiperazin-1-yl)-7-(2-aminobenzo[d]thiazol-4-yl)-6-fluoro-1-(2-isopropyl-4-methylpyridin-3-yl)-N-methyl-2-oxo-1,2-dihydro-1,8-naphthyridine-3-carboxamide] | ≤ 0.3 µM
